According to patent US20040219201A1, “Tempamine compositions and methods of use” (priority 2001, published 2004):

Experiments:
[1] = Percent encapsulation of tempamine in liposomes (EPR); type: physicochemical; conditions: 0.2 mM TMN
Method: The amount of tempamine encapsulated in the liposomes was determined using EPR, as described in Example 3.
EPR spectrometry was employed to detect tempamine concentration using a JES-RE3X EPR spectrometer (JEOL Co., Japan) (Fuchs, J., et al., Free Radic. Biol. Med. 22:967-976, (1997)). Samples were drawn by a syringe into a gas-permeable Teflon capillary tube of 0.81 mm i.d. and 0.05 mm wall thickness (Zeus Industrial Products, Raritan, N.J., USA). The capillary tube was inserted into a 2.5-mm-i.d. quartz tube open at both ends, and placed in the EPR cavity. EPR spectra were recorded with center field set at 329 mT, 100 kHz modulation frequency, 0.1 mT modulation amplitude, and nonsaturating microwave power. […]
The amount of entrapped tempamine of liposomes prepared according to Example 2 was determined by the following procedure. First, the total tempamine in the post-loading liposome preparation (TMNmix) was measured. Then, the amount of tempamine in the post-loading liposome preparation in the presence of potassium ferricyanide, an EPR broadening agent that eliminates the signal of free (non-liposomal) tempamine, was measured. […] Then the total temparifine after releasing it from liposomes by nigericin (TMNnigencia) was measured. […]
The percent encapsulation and the quenching factor were calculated as follows: […]

MCF-7 cancer cells = test: Apoptosis detection by merocyanine-540 staining and flow cytometry; type: cell-based, human; conditions: MCF-7, 1 mM tempamine, 24 hours; 14% without treatment
Source text: In another study, the MCF-7 cell line was used to investigate the mechanism of growth inhibition by tempamine. Untreated cells and tempamine-treated cells (24-hours exposure) were contacted with merocyanine-540. Merocyanine-540 binds selectively to phophatidylserine, which appears at the external surface of the cell at the beginning of apoptosis and is therefore one of the apoptotic markers (Reid, S., et al., J. lmmnol. Methods 192:43 (1996)). After interaction with merocyanine-540, cells were analyzed by flow cytometry as described in the methods section below. […] After the 24 hour treatment period, the cells were trypsinized, stained with merocyanine-540 and analyzed by flow cytometry. […]
Apoptosis was assessed by flow cytometry (FACScan). 1×10^6 cells were removed from culture, washed with PBS, and stained with merocyanine-540 (Reid, S., et al., J. Immunol. Methods 192:43 (1996). Briefly, the cell pellet was resuspended in 500 μl PBS. 2.5 μl of a 1 mg/ml solution of merocyanine-540 was added to the cells, incubated for 2 min at room temperature in the dark. The cells were washed, resuspended in 1 ml PBS, and run immediately on a fluorescence-activated cell-sorting flow cytometer (Vantage, Becton Dickinson, Rutherford, N.J., USA).

[2] = type: in vivo; conditions: free tempamine 1.8 mg/kg, four hours after injection, healthy and arthritic rats
Method: Studies using the AA model are described in Example 6. In this study, AA was induced in male rats by injection of microbacteria in Freund's ajuvavnt. Liposomes containing tempanine were prepared as described in Example 5A by remote loading tempamine against an ammonium sulfate gradient. The liposomes were administered by injection to healthy and arthritic rats 22 days after inducement of AA. At regular time intervals after administration of the liposomes, plasma and tissue samples were taken to determine the biodistribution and pharmacokinetics.
Adjuvent arthritis (AA) was induced by a single intradermal injection of mycobacteria in mineral oil (Freund's adjuvant). In strains of rats susceptible to adjuvant arthritis, the non-specific primary inflamnmation at the injection site was followed on about the 10th post-injection day by a disseminated polyarthritis or secondary specific inflammation. Lewis strain rats, which are highly susceptible to AA, were injected with 1 mg of Mycobacterium tuberculosis H37Ra (Difco, Detroit, Mich., USA) in Freund's complete adjuvant (FCA) (Difco), subcutaneously at the base of the tail. Maximum swelling of the paw occurred between 20 and 27 days
Adjuvent (maximum swelling). Tempamine was administered at a dose of 1.8 mg tempamine/kg (10.5 μmol/kg). The phospholipid concentration of the injected liposomes was 42 mg/kg (56 μmol/kg). […]

[3] = Lipid bilayer/aqueous phase distribution (dialysis membrane); type: physicochemical; conditions: no ammonium sulfate gradient
Method: In another study, the partition of tempamine between the lipid bilayer and the aqueous phase was determined. The lipid bilayer/aqueous phase distribution was performed using a dialysis membrane separating the phases in 0.15 M NaCl (Samuni, A., et al., Free Radic Biol Med., 22:1165 (1997)). There was no predisposition of tempamine for the lipid bilayer over the 0.15 M NaCl aqueous phase and the distribution of tempamine was equal between the liposome preparation (10% egg phosphatidylcholine (EPC) (w/v)) and 0.15 M NaCl (data not shown).

## CC1(C)CC(N)CC(C)(C)N1[O] [tempamine, 2,2,6,6-tetramethylpiperidine-4-amino-1-oxyl]
[1]; liposomes with NH4+ gradient
  % Encapsulation ± S.D.: 84.1 ± 8.4^3%
[1]; liposomes without NH4+ gradient
  % Encapsulation ± S.D.: 6 ± 0.6%
MCF-7 cancer cells
  fluorescently labeled (apoptotic) cells: 77%
[2]
  amount of tempamine in plasma and in the tested tissues (detection limit): < 0.5 µM
[3]
  distribution between liposome preparation (10% EPC w/v) and 0.15 M NaCl: equal
